Measurements taken from BindingDB's records for doi:10.1016/s0960-894x(03)00589-4 (University of California Irvine, 2003).

experiment: Inhibitory concentration required against protein phosphatase 1 using pNPP assay

With `CO[C@@H](Cc1ccccc1)[C@@H](C)/C=C(C)/C=C/[C@H](NC(C)=O)[C@H](C)C(=O)N[C@H](CCC(=O)N(C)C)C(=O)O` [(R)-2-((4E,6E)-(2S,3S,8S,9S)-3-Acetylamino-9-methoxy-2,6,8-trimethyl-10-phenyl-deca-4,6-dienoylamino)-4-dimethylcarbamoyl-butyric acid] as the compound, how does the IC50 read?
The IC50 was over 100 µM.

Which IC50 does the source give for `C=C(C(=O)N[C@H](C)C(=O)N[C@@H](CC(C)C)C(=O)O)N(C)C(=O)CC[C@@H](NC(=O)[C@@H](C)[C@H](/C=C/C(C)=C/[C@H](C)[C@H](Cc1ccccc1)OC)NC(C)=O)C(=O)O` [(S)-2-[(R)-2-(2-{[(R)-4-((4E,6E)-(2S,3S,8S,9S)-3-Acetylamino-9-methoxy-2,6,8-trimethyl-10-phenyl-deca-4,6-dienoylamino)-4-carboxy-butyryl]-methyl-amino}-acryloylamino)-1-oxo-propylamino]-4-methyl-pentanoic acid] here?
The IC50 was 75 µM.

For `CO[C@@H](Cc1ccccc1)[C@@H](C)/C=C(C)/C=C/[C@H](NC(C)=O)[C@H](C)C(=O)N[C@H](CCC(=O)N(C)CC(=O)N[C@H](C)C(=O)N[C@@H](CC(C)C)C(=O)O)C(=O)O` [(S)-2-[(R)-2-(2-{[(R)-4-((4E,6E)-(2S,3S,8S,9S)-3-Acetylamino-9-methoxy-2,6,8-trimethyl-10-phenyl-deca-4,6-dienoylamino)-4-carboxy-butyryl]-methyl-amino}-acetylamino)-1-oxo-propylamino]-4-methyl-pentanoic acid], which IC50 is on record?
Its IC50 is 230 µM.

Which IC50 does the source give for `COC(=O)[C@@H](CCC(=O)N(C)C)NC(=O)[C@@H](C)[C@H](/C=C/C(C)=C/[C@H](C)[C@H](Cc1ccccc1)OC)NC(C)=O` [(R)-2-((4E,6E)-(2S,3S,8S,9S)-3-Acetylamino-9-methoxy-2,6,8-trimethyl-10-phenyl-deca-4,6-dienoylamino)-4-dimethylcarbamoyl-butyric acid methyl ester] here?
Its IC50 is over 100 µM.

Which IC50 does the source give for `CO[C@@H](Cc1ccccc1)[C@@H](C)/C=C(C)/C=C/[C@H](NC(C)=O)[C@H](C)C(=O)N[C@H](CCC(=O)N(C)CC(=O)N[C@H](C)C(=O)O)C(=O)O` [(R)-2-((4E,6E)-(2S,3S,8S,9S)-3-Acetylamino-9-methoxy-2,6,8-trimethyl-10-phenyl-deca-4,6-dienoylamino)-4-{[((R)-1-carboxy-ethylcarbamoyl)-methyl]-methyl-carbamoyl}-butyric acid] here?
The IC50 was 400 µM.
